Results taken from patent US20050048508A1, “Trehalose receptor and method for detecting trehalose with the same” (KABUSHIKI KAISHA HAYASHIBARA SEIBUTSU KAGAKU KENKYUJO, priority 2002, published 2005).

Molecular target: T1, T1R1 and T1R2 with G protein α-subunits (α15 and α16/Z chimeric protein) (Mus musculus, UniProt Q925I4+Q99PG6, E350G/G527D/P352R/R175Q)
T1 construct: expressed in transfected cells; host or cells: 293 cells, RCB 1637 (human embryonic kidney)
T1 sequence (Q99PG6 20-842 L120P/N244D/D281A/N309Y/P311T/S314P/H418Y): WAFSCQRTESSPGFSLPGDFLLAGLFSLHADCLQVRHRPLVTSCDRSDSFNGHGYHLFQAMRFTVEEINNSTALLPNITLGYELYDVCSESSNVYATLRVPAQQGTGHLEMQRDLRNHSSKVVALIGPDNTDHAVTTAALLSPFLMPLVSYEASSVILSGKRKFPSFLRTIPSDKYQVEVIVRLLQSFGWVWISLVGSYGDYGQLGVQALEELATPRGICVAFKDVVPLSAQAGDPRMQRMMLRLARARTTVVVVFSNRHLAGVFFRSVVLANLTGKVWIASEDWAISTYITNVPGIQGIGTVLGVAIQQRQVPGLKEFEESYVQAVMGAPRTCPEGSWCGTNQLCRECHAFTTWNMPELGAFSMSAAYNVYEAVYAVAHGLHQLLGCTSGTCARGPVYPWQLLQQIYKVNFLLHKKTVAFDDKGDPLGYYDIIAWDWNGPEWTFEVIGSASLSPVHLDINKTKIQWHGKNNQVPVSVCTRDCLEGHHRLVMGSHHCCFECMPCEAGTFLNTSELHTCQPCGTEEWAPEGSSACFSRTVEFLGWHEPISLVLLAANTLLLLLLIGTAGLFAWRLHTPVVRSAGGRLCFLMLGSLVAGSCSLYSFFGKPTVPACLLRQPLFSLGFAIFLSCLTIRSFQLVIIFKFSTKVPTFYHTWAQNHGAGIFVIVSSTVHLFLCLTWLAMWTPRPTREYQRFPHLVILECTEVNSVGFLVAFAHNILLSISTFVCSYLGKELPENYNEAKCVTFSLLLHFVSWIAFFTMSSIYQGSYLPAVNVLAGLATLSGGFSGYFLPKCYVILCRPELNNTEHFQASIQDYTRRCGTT
T1 sequence (Q925I4 20-843 R175Q/E350G/P352R/G527D): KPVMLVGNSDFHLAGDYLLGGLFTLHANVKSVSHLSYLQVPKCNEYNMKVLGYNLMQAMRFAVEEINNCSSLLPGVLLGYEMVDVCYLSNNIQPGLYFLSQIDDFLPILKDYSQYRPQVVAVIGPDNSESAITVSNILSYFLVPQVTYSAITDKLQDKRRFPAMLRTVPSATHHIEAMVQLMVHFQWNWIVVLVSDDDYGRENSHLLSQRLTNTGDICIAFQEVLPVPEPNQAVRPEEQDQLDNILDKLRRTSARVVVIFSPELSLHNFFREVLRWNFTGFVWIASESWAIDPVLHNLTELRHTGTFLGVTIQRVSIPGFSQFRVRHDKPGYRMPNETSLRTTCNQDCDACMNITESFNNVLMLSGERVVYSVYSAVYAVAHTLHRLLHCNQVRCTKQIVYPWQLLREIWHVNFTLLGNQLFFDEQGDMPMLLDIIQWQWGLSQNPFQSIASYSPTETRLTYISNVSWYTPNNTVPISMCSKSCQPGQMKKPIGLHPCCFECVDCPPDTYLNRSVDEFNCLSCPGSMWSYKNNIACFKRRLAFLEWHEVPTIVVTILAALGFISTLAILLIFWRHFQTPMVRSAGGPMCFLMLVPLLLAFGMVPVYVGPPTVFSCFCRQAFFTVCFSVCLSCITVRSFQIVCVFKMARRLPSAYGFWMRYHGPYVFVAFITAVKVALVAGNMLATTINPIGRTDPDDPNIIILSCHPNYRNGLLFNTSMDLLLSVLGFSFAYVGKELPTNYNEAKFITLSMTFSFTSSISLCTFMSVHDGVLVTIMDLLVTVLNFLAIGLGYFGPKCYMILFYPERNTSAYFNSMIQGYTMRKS
Assay: Intracellular calcium ion assay, 293 cells coexpressing G protein α-subunits, T1R1 and T1R2
Format: cell-based
Settings: 293 cells: T1R1 + T1R2 + G protein α-subunits; 0.67 ml of 1 M saccharide solution added to 2 ml cell suspension; FLUO-4 AM
Description: The coexpression vector for the G protein α-subunit α15 and the G protein α16/Z chimeric protein (hereinafter designated as “G protein α-subunits”) obtained in Example 1-3 was gene transferred to 293 cells, RCB 1637, a human embryonic kidney cell line, available from the Riken Bioresource Center, Ibaraki, Japan, by conventional lipofection. The gene transferred cells were suspended in Dulbecco's Modified Eagle's Medium (D-MEM) supplemented with 1 mg/L of “PUROMYCIN”, a trade mane of puromycin commercialized by Edge Biosystems, MD, USA, and 10% (v/v) of fetal calf serum to give a cell density of 2×10^6 cells/ml and cultured in a plastic petri dish for cell culture. […]
The captioned reactivity test was conducted according to a conventional intracellular calcium ion assay: 293 Cells prepared in Example 3, capable of coexpressing the G protein α-subunits and the sweet taste receptor(s), were cultured in a plastic petri dish for cell culture until reaching its confluent phase. […] Two milliliters of the resultant cell suspension was injected into a glass cuvette, commercialized by Hitachi, Ltd., Tokyo, Japan, and analyzed on “HITACHI 650-40”, a fluorescence spectrophotometer commercialized by Hitachi, Ltd., Tokyo, Japan. […]

Row | Influx of calcium ion | Compound
1 | Negative | OC[C@H]1O[C@@](CO)(O[C@H]2O[C@H](CO)[C@@H](O)[C@H](O)[C@H]2O)[C@@H](O)[C@@H]1O [Sucrose, reference compound]
2 | Negative | OC[C@H]1O[C@H](O[C@H]2O[C@H](CO)[C@@H](O)[C@H](O)[C@H]2O)[C@H](O)[C@@H](O)[C@@H]1O [Trehalose]
